# From publication PMC11940194, “Synthesis, Antiproliferative Activity, and ADME Profiling of Novel Racemic and Optically Pure Aryl-Substituted Purines and Purine Bioisosteres” (Biomolecules, 2025)
# Experiments:
# [1] = system: hepatocellular carcinoma (HepG2) cells; experiment: Antiproliferative MTT assay, HepG2; assay type: cell-based, human; settings: for IC50: Homo sapiens, HepG2, 72 h, 72 h incubation, MTT, mean ± SD; for SI (HepG2): SI = [IC50 HFF]/[IC50 HepG2]
# Procedure, shortened: (§1)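 Seeding density followed doubling time: 3000 cells per well for the cancer lines, 5000 for normal fibroblasts. Test substances, freshly diluted from 0.01 to 100 µM, were incubated with the cells for 72 h before MTT measurement of growth rate. IC50 values came from linear regression of dose–response curves.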
# [2] = system: normal skin fibroblasts (HFF-1); experiment: Cytotoxicity MTT assay, normal skin fibroblasts; assay type: cell-based, human; settings: Homo sapiens, HFF-1, 72 h, 72 h incubation, mean ± SD
# Procedure, shortened: as §1
# [3] = Metabolic stability in mouse liver microsomes; assay type: in vitro ADME; settings: for Clearance Class.: mouse liver microsomes; for Clearance Values (CL): predicted in vivo hepatic clearance from mouse liver microsome t1/2, 1 µM compound
# Source text: Mouse liver microsomes were obtained from Corning Life Sciences (Corning, NY, USA). DMSO, nicotinamide adenine dinucleotide phosphate (NADP), glucose-6-phosphate, glucose-6-phosphate dehydrogenase, magnesium chloride, propranolol, caffeine, diclofenac, and phosphate-buffered saline (PBS) were purchased from Sigma (St. Louis, MO, USA). Acetonitrile (ACN) and methanol (MeOH) were obtained from Merck (Darmstadt, Germany). Testosterone was purchased from Steraloids (Newport, RI, USA). Metabolic stability was assessed in mouse liver microsomes. Compounds (final concentration of 1 µM, 0.03% DMSO v/v) were incubated in duplicate in phosphate buffer (50 mM, pH 7.4) at 37 °C together with mouse liver microsomes in the absence and presence of the NADPH cofactor (0.5 mM nicotinamide adenine dinucleotide phosphate, 5 mM glucose-6-phosphate, 1.5 U/mL glucose-6-phosphate dehydrogenase, and 0.5 mM magnesium chloride). Incubation and sampling were performed on a Freedom EVO 200 (Tecan, Männedorf, CH, Switzerland) at […], 10, 20, 30, 45, and 60 min. The reaction was quenched using 3 volumes of a mixture of ACN/MeOH (2:1) containing internal standard (diclofenac), centrifuged, and the supernatants were analyzed using LC-MS/MS. The metabolic activity of the microsomes was verified via simultaneous analysis of several controls including testosterone, propranolol, and caffeine. The in vitro half-life (t1/2) was calculated using GraphPad Prism (v9.0 software) non-linear regression of % of parent compound remaining versus time. In vitro clearance, expressed as µL/min/mg, was estimated from the in vitro half-life (t1/2) and normalized for the protein amount in the incubation mixture, assuming 52.5 mg of protein per gram of liver and using constant values for mouse liver weight/body weight [87.5 g/kg] and mouse liver blood flow (LBF) [131 mL/min/kg].
# (§2) All samples were quantified using tandem mass spectrometry coupled to liquid chromatography. Samples were analyzed on a Sciex API4000 Triple Quadrupole Mass Spectrometer (Sciex, Division of MDS Inc., Toronto, Canada) coupled to a Shimadzu Nexera X2 UHPLC frontend (Kyoto, Japan). Samples were injected onto a UHPLC column (HALO2 C18, 2.1 × 20 mm, 2 µm or Luna Omega 1.6 µm Polar C18 100A, 30 × 2.1 mm) and eluted with a gradient at 50 °C. The mobile phase was composed of acetonitrile/water mixture (9/1, with 0.1% formic acid) and 0.1% formic acid in deionized water. The flow rate was 0.7 mL/min under gradient conditions, leading to a total run time of 1.5–2 min. A positive ion mode with turbo spray, an ion source temperature of 550 °C, and a dwell time of 150 ms were utilized for mass spectrometric detection. Quantitation was performed using multiple reaction monitoring (MRM) at the specific transitions for each compound.
# [4] = system: colorectal carcinoma (HT-29) cells; experiment: Antiproliferative MTT assay, HT-29; assay type: cell-based, human; settings: for IC50: Homo sapiens, HT-29, 72 h, 72 h incubation, MTT, mean ± SD; for SI (HT-29): SI = [IC50 HFF]/[IC50 HT-29]
# Procedure, shortened: as §1
# [5] = system: pancreatic ductal adenocarcinoma (CFPAC-1) cells; experiment: Antiproliferative MTT assay, CFPAC-1; assay type: cell-based, human; settings: for IC50: Homo sapiens, CFPAC-1, 72 h, 72 h incubation, MTT, mean ± SD; for SI (CFPAC-1): SI = [IC50 HFF]/[IC50 CFPAC-1]
# Procedure, shortened: as §1
# [6] = system: breast adenocarcinoma (MCF7) cells; experiment: Antiproliferative MTT assay, MCF-7; assay type: cell-based, human; settings: for IC50: Homo sapiens, MCF7, 72 h incubation, MTT, mean ± SD; for SI (MCF-7): SI = [IC50 HFF]/[IC50 MCF-7]
# Procedure, shortened: as §1
# [7] = system: MDCKII-MDR1 cells (P-glycoprotein); experiment: MDCKII-MDR1 permeability assay; assay type: in vitro ADME, canine cells with over-expressed human MDR1 gene; settings: for Permeability: permeability class
# Description: (§3) MDCKII-hMDR1 cells were obtained from Solvo Biotechnology, Hungary. DMEM, fetal bovine serum, Glutamax-100, Antibiotic/Antimycotic, DMSO, Dulbecco’s phosphate-buffered saline, and MEM Non-essential amino acids were purchased from Sigma (St. Louis, MO, USA). Bi-directional permeability and P-glycoprotein substrate assessments were carried out in Madin-Darby canine epithelial cells with the over-expressed human MDR1 gene (MDCKII-MDR1), coding for P-glycoprotein. Experimental procedures, as well as cell culture conditions, were the same as previously described. Briefly, compounds (10 µM, 1% DMSO v/v) in duplicate were incubated at 37 °C for 60 min with cell monolayer on 24-well Millicell inserts (Millipore, Burlington, MA, USA) with and without the P-glycoprotein inhibitor Elacridar (2 µM, International Laboratory, San Francisco, CA, USA). The inhibition of P-glycoprotein was verified by amprenavir (Moravek Biochemicals Inc, Brea, CA, USA) and monolayer integrity using Lucifer yellow (Sigma, St. Louis, MO, USA). LC-MS/MS measured compound concentrations and Lucifer yellow was measured on an Infinite F500 (Tecan, Männedorf, CH, Switzerland) using excitation of 485 nm and emission of 530 nm.
# as §2
# [8] = system: P-glycoprotein (human MDR1); experiment: MDCKII-MDR1 permeability assay; assay type: in vitro ADME, canine cells with over-expressed human MDR1 gene; settings: dog, MDCK-MDR1; for Papp A→B at 60 min, 10 µM / Papp B→A at 60 min, 10 µM: 37 °C; for efflux ratio at 60 min, 10 µM: <2 no efflux, >2 active efflux; for Papp at 60 min, 10 µM: permeability class
# Description: as §3, §2
IC50 [1] [µM],Clearance Class. [3],Clearance Values (CL) [3] [%],IC50 [4] [µM],IC50 [5] [µM],IC50 [6] [µM],Permeability [7],"Papp A→B at 60 min, 10 µM [8] [×10⁻⁶ cm/s]","Papp B→A at 60 min, 10 µM [8] [×10⁻⁶ cm/s]","efflux ratio at 60 min, 10 µM [8]","Papp at 60 min, 10 µM [8] [×10⁻⁶ cm/s]","Efflux Ratio ([7]; <2 no efflux, >2 active efflux)",Structure (SMILES),IC50 [2] [µM],SI (CFPAC-1) [5],SI (HepG2) [1],SI (HT-29) [4],SI (MCF-7) [6]
29 ± 0.8,MODERATE (30–70% moderate),43,34 ± 0.3,39 ± 2.8,24 ± 1,HIGH,10,25.5,2.6,,,"OCC(c1ccc(Br)cc1)n1cc(Cn2ccc3ccccc32)nn1 (stereo not drawn) [Compound 29a, 1-((1-(2-Hydroxy-1-(4-bromophenyl)ethyl)-1H-1,2,3-triazol-4-yl)methyl)-1H-indole]",> 100,>2.6,,,
35 ± 1.8,,92,36 ± 1.4,43 ± 9.1,29 ± 14,highest permeability and HIGH,18.3,28.6,1.7,,,"OC(Cn1cc(Cn2ccc3ccccc32)nn1)c1ccc(Br)cc1 (stereo not drawn) [Compound 29b, 1-((1-(2-Hydroxy-2-(4-bromophenyl)ethyl)-1H-1,2,3-triazol-4-yl)methyl)-1H-indol]",25 ± 4.1,0.6,,,
35 ± 14.2,LOW (<30% low),,39 ± 4.3,15 ± 8.9,22 ± 5.1,,≤ 2,65.7,32.8,≤ 2,,"OCC(c1ccc(Br)cc1)n1cc(Cn2cnc3ccccc32)nn1 (stereo not drawn) [Compound 34a, 1-((1-(2-Hydroxy-1-(4-bromophenyl)ethyl)-1H-1,2,3-triazol-4-yl)methyl)-1H-benzimidazole]",42 ± 8.3,2.8,,,

# Second part, the molecule before the results:
Structure (SMILES),IC50 [1] [µM],Clearance Class. [3],Clearance Values (CL) [3] [%],IC50 [4] [µM],IC50 [5] [µM],IC50 [6] [µM],Permeability [7],"Papp A→B at 60 min, 10 µM [8] [×10⁻⁶ cm/s]","Papp B→A at 60 min, 10 µM [8] [×10⁻⁶ cm/s]","efflux ratio at 60 min, 10 µM [8]","Papp at 60 min, 10 µM [8] [×10⁻⁶ cm/s]","Efflux Ratio ([7]; <2 no efflux, >2 active efflux)",IC50 [2] [µM],SI (CFPAC-1) [5],SI (HepG2) [1],SI (HT-29) [4],SI (MCF-7) [6]
"OC(Cn1cc(Cn2cnc3ccccc32)nn1)c1ccc(Br)cc1 (stereo not drawn) [Compound 34b, 1-((1-(2-Hydroxy-2-(4-bromophenyl)ethyl)-1H-1,2,3-triazol-4-yl)methyl)-1H-benzimidazole]",64 ± 19.5,MODERATE (30–70% moderate),48,70 ± 14.5,8 ± 3.2,39 ± 10.1,MODERATE,4.3,69.4,17.2,,,32 ± 14.1,4.0,,,
"OC(Cn1cc(Cn2cnc3c(Cl)ncnc32)nn1)c1ccc(Br)cc1 (stereo not drawn) [Compound 39b, 6-Chloro-9-((1-(2-hydroxy-2-(4-bromophenyl)ethyl)-1H-1,2,3-triazol-4-yl)methyl)-9H-purine]",44 ± 8.1,,,50 ± 0.6,15 ± 1,21 ± 14,MODERATE,3.1,69.6,22.5,,,30 ± 2.7,,0.7,0.6,
"OC(Cn1cc(Cn2cnc3c(Cl)ncnc32)nn1)c1ccc(C(F)(F)F)cc1 (stereo not drawn) [Compound 40b, 6-Chloro-9-((1-(2-hydroxy-2-(4-(trifluoromethyl)phenyl)ethyl)-1H-1,2,3-triazol-4-yl)methyl)-9H-purine]",15 ± 9,low clearance,,14 ± 8.1,25 ± 6.4,28 ± 6.7,,,,,,higher efflux values,8 ± 4.8,,0.5,0.6,
"OCC(c1ccc(Br)cc1)n1cc(Cn2ccc3c(Cl)ncnc32)nn1 (stereo not drawn) [Compound 44a, 4-Chloro-7-((1-(2-hydroxy-1-(4-bromophenyl)ethyl)-1H-1,2,3-triazol-4-yl)methyl)-7H-pyrrolo[2,3-d]pyrimidine]",83 ± 28.3,MODERATE (30–70% moderate),56,87 ± 9.9,69 ± 2,79 ± 17.6,HIGH,10.9,67.4,6.2,,,79 ± 17.6,1.1,,,1.0
"OC(Cn1cc(Cn2ccc3c(Cl)ncnc32)nn1)c1ccc(Br)cc1 (stereo not drawn) [Compound 44b, 4-Chloro-7-((1-(2-hydroxy-2-(4-bromophenyl)ethyl)-1H-1,2,3-triazol-4-yl)methyl)-7H-pyrrolo[2,3-d]pyrimidine]",32 ± 3.2,,84,30 ± 0.7,15 ± 0.2,25 ± 6.4,highest permeability and HIGH,25.3,62.7,2.5,,,27 ± 11.9,1.8,,,1.1
"OC(Cn1cc(Cn2ccc3c(Cl)ncnc32)nn1)c1ccc(C(F)(F)F)cc1 (stereo not drawn) [Compound 45b, 4-Chloro-7-((1-(2-hydroxy-2-(4-(trifluoromethyl)phenyl)ethyl)-1H-1,2,3-triazol-4-yl)methyl)-7H-pyrrolo[2,3-d]pyrimidine]",32 ± 16.1,,90,19 ± 7.5,13 ± 2.2,21 ± 1.6,highest permeability and HIGH,26.5,90.7,3.4,,,12 ± 3.1,0.9,,,0.6
"OCC(c1ccc(Br)cc1)n1cc(Cn2cnc3c(Cl)nccc32)nn1 (stereo not drawn) [Compound 49a, 4-Chloro-1-((1-(2-hydroxy-1-(4-bromophenyl)ethyl)-1H-1,2,3-triazol-4-yl)methyl)-1H-imidazo[4,5-c]pyridine]",66 ± 22.8,LOW (<30% low),,77 ± 1.1,77 ± 0.5,77 ± 3,,≤ 2,41.1,41.4,≤ 2,,90 ± 4.04,,1.4,,
